The values below come from patent US10065990B2, “Cyclic peptide compound, and preparation method, pharmaceutical composition and use thereof” (HANGZHOU GUANYU BIO-MEDICAL CO., LTD, priority 2013, dated 2018).

Like-named read-outs stand apart in the source and are kept apart here.

The subject of assay [1] is PANC-1 (Pac-1, human pancreatic cancer cells). Put plainly: MTT cancer cell growth inhibition. It is filed as cell-based. The conditions noted are these: Homo sapiens, PANC-1, 72 h, MTT, 72 hours incubation, read-out: GI50 PAN. From the text:
(§1) MTT assay principle is yellow MTT can penetrate membrane into the cell, succinic dehydrogenase of the mitochondria in living cells can make exogenous MTT reduction of insoluble in water of blue-violet acicular formazan for crystallization and deposition in the cell, crystallization can be dissolved dimethyl sulfoxide (DMSO) solution, detected its absorbance at 490 nm/570 nm wavelength by enzyme-linked immunosorbent assay, which can reflect the number of cells.
(§2) Using DMEM+10% FBS culture medium or using 1640+10% FBS culture, respectively.
(§3) a) Cells were seeded in 96-well plates with the inoculation of 1500/well, 190 μl/hole, 37° C., 5% of CO2 incubator overnight;
(§4) b) The next day each well was added 10 μl of different drugs. The final concentration of drug was 10^−5˜10^−10M, three parallel holes; 37° C., 5% CO2 culture incubator for 72 hours incubation;
(§5) c) Per well was added 20 μl 5 mg/ml of MTT, 37° C., 5% CO2 culture incubator for 4 hours incubation;
(§6) d) The supernatant was discarded. Each well was added 100 μl of DMSO and oscillation;
(§7) e) 570 nm readings. Calculate cell viability. GI50 calculation based on the results.

Assay [2] deals with HT1080 (human fibrosarcoma cells). Briefly: MTT cancer cell growth inhibition. The class given is cell-based. The note with it: Homo sapiens, HT-1080, 72 h, MTT, 72 hours incubation, read-out: GI50 HT1.
Source text: as §1, §2, §3, §4, §5, §6, §7

Assay [3] concerns MCF-7 (human breast cancer cells). Briefly: MTT cancer cell growth inhibition. The note with it: Homo sapiens, MCF7, 72 h, 72 hours incubation, read-out: GI50 MCF. The class given is cell-based.
Source text: as §1, §2, §3, §4, §5, §6, §7

Assay [4] relates to BGC-823 (human gastric cancer cells). Briefly: MTT cancer cell growth inhibition. The note with it: Homo sapiens, BGC-823, 72 h, MTT, 72 hours incubation, read-out: GI50 BG. It is filed as cell-based.
Source text: as §1, §2, §3, §4, §5, §6, §7

In assay [5] the test system is SGC-7901 (human gastric cancer cells). Put plainly: MTT cancer cell growth inhibition. The class given is cell-based. The note with it: Homo sapiens, SGC-7901, 72 h, MTT, 72 hours incubation, SGC-7901 cells; read-out: GI50 SGC-7901.
Source text: as §1, §2, §3, §4, §5, §6, §7

The subject of assay [6] is A549 (human lung cancer cells). Briefly: MTT cancer cell growth inhibition. The class given is cell-based. The note with it: Homo sapiens, A549, 72 h, MTT, 72 hours incubation, read-out: GI50 A54.
Source text: as §1, §2, §3, §4, §5, §6, §7

In assay [7] the test system is Huh-7 (human hepatoma cells). Put plainly: MTT cancer cell growth inhibition. It is filed as cell-based. The note with it: Homo sapiens, Huh-7, 72 h, MTT, 72 hours incubation, Huh-7 cells; read-out: GI50 Huh-7.
Source text: as §1, §2, §3, §4, §5, §6, §7

Assay [8] has as its system U937 (human leukemia cells). Put plainly: MTT cancer cell growth inhibition. It is filed as cell-based. The note with it: Homo sapiens, U-937, 72 h, MTT, 72 hours incubation, read-out: GI50 U93.
Source text: as §1, §2, §3, §4, §5, §6, §7

Assay [9] has as its system H1975 (non-small cell lung adenocarcinoma). Briefly: MTT cancer cell growth inhibition. The class given is cell-based. The conditions noted are these: Homo sapiens, NCI-H1975, 72 h, MTT, 72 hours incubation, H1975 cells; read-out: GI50 H1975.
Source text: as §1, §2, §3, §4, §5, §6, §7

Assay [10] concerns Hela (human cervical cancer cells). Put plainly: MTT cancer cell growth inhibition. The class given is cell-based. The conditions noted are these: Homo sapiens, HeLa, 72 h, MTT, 72 hours incubation, read-out: GI50 Hela.
Source text: as §1, §2, §3, §4, §5, §6, §7

The subject of assay [11] is KBM5-T315I (human chronic myelogenous leukemia). Put plainly: MTT cancer cell growth inhibition. The class given is cell-based. The conditions noted are these: Homo sapiens, 72 h, MTT, 72 hours incubation, KBM5-T315I cells; read-out: GI50 KBM5-T315I.
Source text: as §1, §2, §3, §4, §5, §6, §7

In assay [12] the test system is MOLT-4 (human acute lymphoblastic leukemia cells). Briefly: MTT cancer cell growth inhibition. It is filed as cell-based. The note with it: Homo sapiens, MOLT-4, 72 h, MTT, 72 hours incubation, read-out: GI50 Mol.
Source text: as §1, §2, §3, §4, §5, §6, §7

Assay [13] has as its system N-87 (human gastric cancer cells). Briefly: MTT cancer cell growth inhibition. It is filed as cell-based. The note with it: Homo sapiens, 72 h, MTT, 72 hours incubation, N-87 cells; read-out: GI50 N-87.
Source text: as §1, §2, §3, §4, §5, §6, §7

The test system of assay [14] is KBM-5 (human chronic myelogenous leukemia). Put plainly: MTT cancer cell growth inhibition. The class given is cell-based. The note with it: Homo sapiens, KBM5, 72 h, MTT, 72 hours incubation, KBM-5 cells; read-out: GI50 KBM-5.
Source text: as §1, §2, §3, §4, §5, §6, §7

The test system of assay [15] is DU145 (human prostate cancer cells). Briefly: MTT cancer cell growth inhibition. The class given is cell-based. The note with it: Homo sapiens, DU-145, 72 h, MTT, 72 hours incubation, read-out: GI50 Du1.
Source text: as §1, §2, §3, §4, §5, §6, §7

The subject of assay [16] is HCC827 (human non-small cell lung cancer cells). Put plainly: MTT cancer cell growth inhibition. It is filed as cell-based. The conditions noted are these: Homo sapiens, HCC827, 72 h, MTT, 72 hours incubation, HCC827 cells; read-out: GI50 HCC827.
Source text: as §1, §2, §3, §4, §5, §6, §7

For assay [17], the system named is K562 (human leukemia cells). Put plainly: MTT cancer cell growth inhibition. The class given is cell-based. The conditions noted are these: Homo sapiens, K562, 72 h, MTT, 72 hours incubation, K562 cells; read-out: GI50 K562.
Source text: as §1, §2, §3, §4, §5, §6, §7

The subject of assay [18] is Bel-7402 (human hepatoma cells). Put plainly: MTT cancer cell growth inhibition. It is filed as cell-based. The conditions noted are these: Homo sapiens, Bel-7402, 72 h, MTT, 72 hours incubation, Bel-7402 cells; read-out: GI50 Bel-7402.
Source text: as §1, §2, §3, §4, §5, §6, §7

In assay [19] the test system is lncap (prostate cancer cells). Put plainly: MTT cancer cell growth inhibition. It is filed as cell-based. The conditions noted are these: Homo sapiens, LNCaP, 72 h, MTT, 72 hours incubation, read-out: GI50 lnca.
Source text: as §1, §2, §3, §4, §5, §6, §7

Assay [20] concerns MDA-MB-231 (breast cancer cells). Briefly: MTT cancer cell growth inhibition. The class given is cell-based. The conditions noted are these: Homo sapiens, MDA-MB-231, 72 h, read-out: GI50 MDA-MB-231, MTT, 72 hours incubation, MDA-MB-231 cells.
Source text: as §1, §2, §3, §4, §5, §6, §7

For another assay, the target named is T1, HDAC7 (Homo sapiens, UniProt Q8WUI4).
T1 sequence (Q8WUI4 1-952): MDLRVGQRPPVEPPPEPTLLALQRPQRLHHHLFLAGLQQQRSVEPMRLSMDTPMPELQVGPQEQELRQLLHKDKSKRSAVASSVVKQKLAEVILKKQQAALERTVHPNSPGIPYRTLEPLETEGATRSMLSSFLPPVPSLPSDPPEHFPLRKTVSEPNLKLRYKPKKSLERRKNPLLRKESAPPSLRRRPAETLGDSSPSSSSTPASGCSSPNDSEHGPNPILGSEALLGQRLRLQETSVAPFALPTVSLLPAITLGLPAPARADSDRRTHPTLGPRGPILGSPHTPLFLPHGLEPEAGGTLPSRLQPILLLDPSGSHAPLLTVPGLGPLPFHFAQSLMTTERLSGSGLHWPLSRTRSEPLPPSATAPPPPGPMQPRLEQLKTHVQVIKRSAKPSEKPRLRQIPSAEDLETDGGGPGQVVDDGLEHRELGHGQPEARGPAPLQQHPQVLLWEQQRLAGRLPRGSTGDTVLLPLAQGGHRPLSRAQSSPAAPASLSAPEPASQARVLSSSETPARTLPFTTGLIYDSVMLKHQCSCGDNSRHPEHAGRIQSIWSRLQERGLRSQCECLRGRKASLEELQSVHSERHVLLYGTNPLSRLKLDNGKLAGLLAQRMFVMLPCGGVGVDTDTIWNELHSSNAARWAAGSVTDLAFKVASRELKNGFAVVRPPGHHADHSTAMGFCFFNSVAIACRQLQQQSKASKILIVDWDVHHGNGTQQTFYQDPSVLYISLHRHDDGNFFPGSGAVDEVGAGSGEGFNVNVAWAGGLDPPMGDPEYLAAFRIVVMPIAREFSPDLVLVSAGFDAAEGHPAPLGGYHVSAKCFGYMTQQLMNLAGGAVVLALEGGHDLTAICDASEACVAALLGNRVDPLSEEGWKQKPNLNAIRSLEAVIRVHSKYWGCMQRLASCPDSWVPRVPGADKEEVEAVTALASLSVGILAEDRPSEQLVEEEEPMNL
Put plainly: HDAC biochemical activity measurement (fluorescent substrate deacetylation).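 Also: fluorogenic deacetylation assay using acetyl-lysine substrate at 20 µM, enzyme and compound incubated 30 min at 37 °C, then developer added, fluorescence read at 360/460 nm.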 The conditions noted are these: HDAC7; 37° C. 30 minutes.

For the compound `C=C1NC(=O)c2cccc(n2)CNC(=O)C[C@@H](/C=C/CCS)OC(=O)[C@H](C)NC1=O` [Compound 139], the GI50 (in general, the concentration at which growth is held to half of that of the control) stood at 70 nM in assay [1]; 70 nM in [2]; 10 nM in assay [3]; 60 nM in assay [4]; 57 nM in assay [5]; 50 nM in assay [6]. The GI50 is 51 nM in [7]; 50 nM in assay [8]; 15 nM in assay [9]; 70 nM in [10]; 21 nM in assay [11]; 90 nM in assay [12]. For the same compound, the concentration for 50% growth inhibition (GI50) in assay [13] is 25 nM; in [14] it was 69 nM; in assay [15], 80 nM; in assay [16] it was 34 nM; in assay [17], 47 nM; in assay [18], 43 nM. In addition, the GI50 in assay [19] was determined as 190 nM; in assay [20], 67 nM. The “IC50 HDAC7” value at HDAC7 is given as “no activity”.

Turning to `C=C1NC(=O)c2nc(ccc2F)CNC(=O)C[C@@H](/C=C/CCSC(C)=O)OC(=O)[C@H](C)NC1=O` [Compound 90], the GI50 was found to be 90 nM in assay [1]; 90 nM in [2]; 20 nM in [3]; 30 nM in [4]; 36 nM in [5]; 30 nM in assay [6]. The GI50 in [7] stood at 49 nM; in assay [8], 30 nM; in assay [9], 34 nM; in assay [10] it was 80 nM; in assay [11], 24 nM; in assay [12], 40 nM. Further, the GI50 in [13] amounted to 34 nM; in assay [14] it was 83 nM; in [15], 50 nM; in assay [16], 94 nM; in assay [17], 53 nM; in assay [18] it was 94 nM. In addition, the values for the GI50 in assay [19] and in assay [20] were 40 nM and 49 nM, respectively. Moreover, the “IC50 HDAC7” value against HDAC7 was “no activity”.

Regarding `C/C=C1\NC(=O)c2ccc(SC)c(n2)CCNC(=O)C[C@@H](/C=C/CCSC(C)=O)OC(=O)[C@H](C(C)C)NC1=O` [Compound 225], the GI50 amounted to 30 nM in assay [1] (PANC-1 cells); 20 nM in [2] (HT1080 cells); 30 nM in assay [3] (MCF-7 cells); 40 nM in [4] (BGC-823 cells); 41 nM in assay [5]; 40 nM in assay [6] (A549 cells). Also, the GI50 was 59 nM in assay [7]; 30 nM in assay [8] (U937 cells); 29 nM in [9]; 70 nM in [10] (Hela cells); 38 nM in assay [11]; 60 nM in assay [12] (MOLT-4 cells). For the same compound, the GI50 in assay [13] came out at 38 nM; in [14] it was 33 nM; in assay [15] (DU145 cells), 20 nM; in [16], 13 nM; in assay [17] it was 81 nM; in [18], 72 nM. Also, the GI50 in assay [19] (lncap cells) is 20 nM; in assay [20], 71 nM. Also, the “IC50 HDAC7” value against HDAC7 is recorded as “no activity”.

With `C=C1NC(=O)c2cc(F)cc(n2)CNC(=O)C[C@@H](/C=C/CCSC(C)=O)OC(=O)[C@H](C(C)C)NC1=O` [Compound 85], the GI50 came out at 40 nM in [1]; 40 nM in assay [2]; 20 nM in assay [3]; 20 nM in assay [4]; 15 nM in assay [5]; 10 nM in [6]. Also, the GI50 in [7] is 39 nM; in assay [8], 60 nM; in [9], 61 nM; in assay [10] it was 50 nM; in assay [11] it was 25 nM; in [12] it was 30 nM. In addition, the GI50 in assay [13] was found to be 27 nM; in assay [14] it was 53 nM; in assay [15], 20 nM; in assay [16] it was 49 nM; in [17], 26 nM; in assay [18] it was 49 nM. The GI50 in [19] stood at 30 nM; in [20], 39 nM. For the same compound, the “IC50 HDAC7” value on HDAC7 was “no activity”.
